From patent publication US20250186405A1, “Compound For Use In Treating Narcolepsy” (Alkermes, Inc., priority 2023, published 2025)
Several values for one entry are separate records, joined by “and”; a condition that tells them apart may be missing. Equal entries are not always repeated.

Experiments:
healthy adult subjects = conditions: human, in vivo
Procedure: Part 1 of the study is a SAD evaluation in healthy subjects consisting of 6 cohorts: Cohorts 1-6 received powder-in-capsule or matching placebo. There were approximately 8 subjects per cohort. Dose levels were as follows:
No food was given for at least 4 hours after dose administration. Water was allowed ad libitum except for the time 1 hour before and 1 hour after study drug administration. Safety assessments including AEs, safety ECGs, vital signs, and clinical laboratory tests were conducted, and plasma PK samples were collected.
Adverse events (AEs) and serious adverse events (SAEs) were monitored continuously until the completion of the study.

[1] = tested on: subjects with narcolepsy type-2 (NT2); assay: Part 5 NT2: Maintenance of Wakefulness Test (MWT) sleep latency; type: in vivo, human; conditions: for Change from Day −1 in Average Sleep Latency on the MWT, LSM / Change from Day −1 in Average Sleep Latency on the MWT, LSM difference vs placebo: NT2, N = 9; for Average Sleep Latency on the MWT, Change from Day −1, Mean (SD) / Average Sleep Latency on the MWT, Change from Day −1, Median / Average Sleep Latency on the MWT, Dosing Day, Mean (SD) / Average Sleep Latency on the MWT, Dosing Day, Median: NT2, n = 9; for LS mean difference vs placebo in change from baseline, average MWT sleep latency: 2-8 hours post-dose
Procedure: On Day −1, approximately 25 hours prior to study drug administration (on Day 1), baseline assessments for Maintenance of Wakefulness Test (MWT) began and were collected in a series of trials over approximately 10 hours.
(§1) At specified time points (Parts 5 and 6), MWT assessments were performed and took up to 40 minutes to complete. During the MWT trials, subjects were seated in a bed or reclining chair in a darkened room with their back and head supported such that their neck is not uncomfortably flexed or extended. Subjects were instructed to sit still and remain awake for as long as possible during each 40-minute trial. If the subject fell asleep during a trial, they were awakened, and the trial was terminated. […] Upon completion of the trial, the subject returned to a normal environment/ambiance and remained awake (and were awakened if they fall asleep) until the next trial.
(§2) Once Parts 5 and 6 were completed, the EEG data recorded during the MWT, as well as the technician notes, were transferred to the EEG vendor for further analysis. Technician notes were also maintained for transfer to Sponsor at the end of the study. A precise assessment of sleep latency was conducted by an experienced sleep scorer from the EEG vendor, and spectral analysis was performed on the EEG data recorded during MWT to assess absolute and relative powers in standard frequency bands (i.e., qEEG). All raw data and analysis results were transferred to the Sponsor.
(§3) For the changes from baseline in average sleep latency across the first 4 sessions of the MWT, descriptive statistics were provided by dose level. Mixed model with repeated measure (MMRM) for the 4-period crossover design were conducted with the change from baseline as a dependent variable, and the dose level and the period as fixed factors. The differences in the least square means between each Compound A dose level and the placebo (each Compound A dose level—the placebo), and the 2-sided CIs were provided.
(§4) Evaluation of Compound A effects on average sleep latency across 4 timepoints of MWT (2-, 4-, 6-, and 8-hours post-dose) has been conducted at each of the crossover periods (Days 1, 3, 5 and 7), testing placebo, and active dose levels of 5, 12, and 25 mg in the patients with NT2 compared to placebo. At pre-dose baseline on Day −1, MWT assessment was taken at similar times (2-, 4-, 6-, and 8-hours) as planned on dosing days assuming a dosing time of approximately 9 AM. Mean (SD) of baseline MWT average across the 4 time points on Day −1 was 14.31 (11.201), with high variability observed for NT2 subjects.

[2] = tested on: subjects with idiopathic hypersomnia (IH); assay: Part 6 IH: Maintenance of Wakefulness Test (MWT) sleep latency; type: in vivo, human; conditions: for LS mean difference vs placebo in change from baseline, average MWT sleep latency: 2-8 hours post-dose; for Change from Day −1 in Average Sleep Latency on the MWT, LSM / Change from Day −1 in Average Sleep Latency on the MWT, LSM difference vs placebo: N = 8; for Average Sleep Latency on the MWT, Change from Day −1, Mean (SD) / Average Sleep Latency on the MWT, Change from Day −1, Median / Average Sleep Latency on the MWT, Dosing Day, Mean (SD) / Average Sleep Latency on the MWT, Dosing Day, Median: n = 8
Procedure: The Treatment Visit (Visit 2) began on Day −2, when each subject's eligibility criteria were reviewed, and eligible subjects were admitted to the clinic. Screening assessments and eligibility criteria review continued after admission until Day 1, prior to randomization and dosing. On Day −1, approximately 25 hours prior to study drug administration (on Day 1), baseline assessments for Maintenance of Wakefulness Test (MWT) began and were collected in a series of trials over approximately 10 hours.
as §1, §2, §3
as §4, with “IH” for “NT2”, “22.61 (9.294),” for “14.31 (11.201),”

Compound: CS(=O)(=O)N[C@H]1CCCN2C(=O)COc3ccccc3C3CCC(CC3)OCC12 (stereo partly drawn) [Compound A, N-[(4S,4aR,7α,10α)-1,2,3,4,4a,5,7,8,9,10,16,17-dodecahydro-17-oxo-7,10-ethanopyrido[1,2-d][1,7,4]benzodioxaazacyclotridecin-4-yl]methanesulfonamide]
- TEAE COVID-19 (healthy adult subjects): 3 n
- Change from Day −1 in Average Sleep Latency on the MWT, LSM ([1]; 5 mg): 11.68 min
- Change from Day −1 in Average Sleep Latency on the MWT, LSM difference vs placebo ([1]; 5 mg): 11.60 min
- Average Sleep Latency on the MWT, Change from Day −1, Mean (SD) ([1]; 5 mg): 11.65 (14.736) minutes
- Average Sleep Latency on the MWT, Change from Day −1, Median ([1]; 5 mg): 8.50 min
- Average Sleep Latency on the MWT, Dosing Day, Mean (SD) ([1]; 5 mg): 25.95 (12.409) minutes
- Average Sleep Latency on the MWT, Dosing Day, Median ([1]; 5 mg): 26.63 min
- Change from Day −1 in Average Sleep Latency on the MWT, LSM ([1]; 12 mg): 18.63 min
- Change from Day −1 in Average Sleep Latency on the MWT, LSM difference vs placebo ([1]; 12 mg): 18.55 min
- Average Sleep Latency on the MWT, Change from Day −1, Mean (SD) ([1]; 12 mg): 18.63 (10.892) minutes
- Average Sleep Latency on the MWT, Change from Day −1, Median ([1]; 12 mg): 19.50 min
- Average Sleep Latency on the MWT, Dosing Day, Mean (SD) ([1]; 12 mg): 32.93 (9.836) minutes
- Average Sleep Latency on the MWT, Dosing Day, Median ([1]; 12 mg): 40.00 min
- Change from Day −1 in Average Sleep Latency on the MWT, LSM ([1]; 25 mg): 21.04 min
- Change from Day −1 in Average Sleep Latency on the MWT, LSM difference vs placebo ([1]; 25 mg): 20.96 min
- Average Sleep Latency on the MWT, Change from Day −1, Mean (SD) ([1]; 25 mg): 21.14 (12.126) minutes
- Average Sleep Latency on the MWT, Change from Day −1, Median ([1]; 25 mg): 17.25 min
- Average Sleep Latency on the MWT, Dosing Day, Mean (SD) ([1]; 25 mg): 35.44 (7.720) minutes
- Average Sleep Latency on the MWT, Dosing Day, Median ([1]; 25 mg): 40.00 min
- LS mean difference vs placebo in change from baseline, average MWT sleep latency ([1]; NT2, 5 mg): 11.60 min and 11.6 min and 12 min
- observed mean MWT score over 8-hour period post-dose ([1]; NT2, 12 mg): ≥ 30 min
- LS mean difference vs placebo in change from baseline, average MWT sleep latency ([1]; NT2, 12 mg): 18.55 min and 18.6 min and 19 min
- observed mean MWT score over 8-hour period post-dose ([1]; NT2, 25 mg): ≥ 30 min
- LS mean difference vs placebo in change from baseline, average MWT sleep latency ([1]; NT2, 25 mg): 20.96 min and 21.0 min and 21 min
- LS mean difference vs placebo in change from baseline, average MWT sleep latency ([2]; 5 mg): 8.07 min and 8 min
- Change from Day −1 in Average Sleep Latency on the MWT, LSM ([2]; 5 mg): 6.35 min
- Change from Day −1 in Average Sleep Latency on the MWT, LSM difference vs placebo ([2]; 5 mg): 8.07 min
- Average Sleep Latency on the MWT, Change from Day −1, Mean (SD) ([2]; 5 mg): 6.35 (10.348) minutes
- Average Sleep Latency on the MWT, Change from Day −1, Median ([2]; 5 mg): 4.75 min
- Average Sleep Latency on the MWT, Dosing Day, Mean (SD) ([2]; 5 mg): 28.96 (9.196) minutes
- Average Sleep Latency on the MWT, Dosing Day, Median ([2]; 5 mg): 29.13 min
- observed mean MWT score over 8-hour period post-dose ([2]; 12 mg): ≥ 30 min
- LS mean difference vs placebo in change from baseline, average MWT sleep latency ([2]; 12 mg): 11.05 min and 11 min
- Change from Day −1 in Average Sleep Latency on the MWT, LSM ([2]; 12 mg): 9.33 min
- Change from Day −1 in Average Sleep Latency on the MWT, LSM difference vs placebo ([2]; 12 mg): 11.05 min
- Average Sleep Latency on the MWT, Change from Day −1, Mean (SD) ([2]; 12 mg): 9.33 (11.468) minutes
- Average Sleep Latency on the MWT, Change from Day −1, Median ([2]; 12 mg): 7.00 min
- Average Sleep Latency on the MWT, Dosing Day, Mean (SD) ([2]; 12 mg): 31.94 (7.814) minutes
- Average Sleep Latency on the MWT, Dosing Day, Median ([2]; 12 mg): 32.69 min
- observed mean MWT score over 8-hour period post-dose ([2]; 25 mg): ≥ 30 min
- LS mean difference vs placebo in change from baseline, average MWT sleep latency ([2]; 25 mg): 17.67 min and 18 min
- Change from Day −1 in Average Sleep Latency on the MWT, LSM ([2]; 25 mg): 15.95 min
- Change from Day −1 in Average Sleep Latency on the MWT, LSM difference vs placebo ([2]; 25 mg): 17.67 min
- Average Sleep Latency on the MWT, Change from Day −1, Mean (SD) ([2]; 25 mg): 15.95 (10.946) minutes
- Average Sleep Latency on the MWT, Change from Day −1, Median ([2]; 25 mg): 15.31 min
- Average Sleep Latency on the MWT, Dosing Day, Mean (SD) ([2]; 25 mg): 38.56 (2.821) minutes
- Average Sleep Latency on the MWT, Dosing Day, Median ([2]; 25 mg): 40.00 min
